# Laboratory results reported in US20130288980A1, “TARGETING SENESCENT AND CANCER CELLS FOR SELECTIVE KILLING BY INTERFERENCE WITH FOXO4” (Buck Institute for Research on Aging, priority 2012, published 2013).
# “Also recorded” adds a separate entry of the source.
# Tests used:
# FOXO4 = FOXO4 knockdown by lentiviral short hairpins: FOXO4 mRNA (QPCR) and punctate FOXO4 staining after 10Gy XRAY; type: cell-based, human; conditions: HCA2 fibroblasts, 8 days after 10Gy XRAY
# Method: FIG. 1A: 3×10^6 Normal Human IMR90 fibroblasts were plated in 6 cm dishes and the next day exposed to 10Gy ionizing radiation (XRAY) or left untreated. At the indicated time-points protein samples were prepared by collecting the cells in 1× Laemli Sample buffer. The indicated proteins were detected by western blot using antibodies against FOXO4 (#9472, Cell Signaling), FOXO3a (#07-702, Upstate/Millipore) and Tubulin (B-5-1-2, Sigma-Aldrich). FIG. 1B: 10^4 Normal human HCA2 fibroblasts were plated in 96-well plates in triplicate per condition and the next day exposed to 10Gy ionizing radiation (XRAY) or left untreated. At the indicated time-points mRNA and subsequent cDNA samples were collected using the Cells-to-Ct kit from Ambion according to the manufacturer's instructions. Real-time QPCR was subsequently performed using the Universal Probe Library system from Roche with the following primers/probe combinations: For FOXO4: Probe 18, FOXO4-fwd: 5′-[…]-3′, FOXO4-Rev: 5′-[…]-3′. For Tubulin: Probe 58, Tubulin-Fwd: 5′-[…]-3′ and Tubulin-Rev 5′-[…]-3′. Changes in mRNA expression were calculated using the ΔΔCT method. FIG. 1C: 2×10^5 IMR90 fibroblasts were plated on glass coverslips and the next day exposed to 10Gy ionizing radiation (XRAY) or left untreated. […]
# A375 melanoma cells = experiment: A375-shGFP versus A375-shFOXO4 sensitivity to chemotherapeutic agents (MTS); type: cell-based, human
# Method: FIG. 12A: 2×10^4 A375-shGFP or A375-shFOXO4-2 cells were plated in triplicate in 96-well plate chambers. The next day the cells were incubated with the indicated concentrations of PLX4032 or left untreated. After 6 days the a CellTiter 96® AQueous One Solution Cell Proliferation Assay (MTS) was performed according to the manufacturer's instructions (Promega) to determine the relative number of cells versus Mock treated A375-shGFP or A375-shFOXO4-2 melanoma cells (Left panel). Additionally, in a separate experiment the cells were refreshed at day 7 with the same dose of PLX4032 and left for another 4 days after which the same procedure was performed. FIG. 12B: Similar experiment as in A), except with the general RAF inhibitor RAF265. FIG. 12C: Similar experiment as in A), except with the MEK inhibitor AZD6244.
# [1] = tested on: BRAFV600E-mutated A375 malignant melanoma cells; experiment: Cytochrome C release in shFOXO4-infected A375 cells treated with PLX4032; type: cell-based, human; conditions: shFOXO4 versus control hairpin; PLX4032 0.5, 2 and 10 μM
# Method: FIG. 9B: BRAF^V600E-mutated A375 malignant melanoma cells were infected as in FIG. 2a and selected for 3 days with 1 μg/ml Puromycin. Subsequently 2×10^4 cells were plated in triplicate on glass coverslips in 24-well plate chambers. The next day the cells were incubated with the indicated concentrations of the BRAF^V600E-inhibitor PLX4032 in the presence of 20 μM of the general caspase-inhibitor Q-VD-OPH. After 5 days the cells were processed as in FIG. 2b for Cytochrome C staining and the percentage of cells with Cytochrome C release was quantified.
# [2] = tested on: BRAFV600E-driven melanoma cells such as A375; conditions: Sala et al. 2008; cited from earlier work
# metastatic melanoma = conditions: patients with metastatic melanoma; Bollag 2010, Sosman 2012; cited from earlier work
compound,measurement,setting,value
5′-CCAGCTTCAGTCAGCAGTTAT-3′ [shFOXO4-1],knockdown of FOXO4 mRNA and reduction in punctate FOXO4 staining,FOXO4,induce knockdown of FOXO4 mRNA and reduction in punctate FOXO4
N.N.[Cl][Pt][Cl] [Cisplatin],sensitivity of A375-shFOXO4 compared with A375-shGFP cells to the drug,A375 melanoma cells,more sensitive
Cn1c(Nc2ccc(C(F)(F)F)cc2)nc2cc(Oc3ccnc(-c4ncc(C(F)(F)F)[nH]4)c3)ccc21 [RAF265],sensitivity of A375-shFOXO4 compared with A375-shGFP cells to the drug,A375 melanoma cells,more sensitive
5′-CGTCCACGAAGCAGTTCAAAT-3′ [shFOXO4-2],knockdown of FOXO4 mRNA and reduction in punctate FOXO4 staining,FOXO4,induce knockdown of FOXO4 mRNA and reduction in punctate FOXO4
Cn1cnc2c(F)c(Nc3ccc(Br)cc3Cl)c(C(=O)NOCCO)cc21 [AZD6244],sensitivity of A375-shFOXO4 compared with A375-shGFP cells to the drug,A375 melanoma cells,more sensitive
CCCS(=O)(=O)Nc1ccc(F)c(C(=O)c2c[nH]c3ncc(-c4ccc(Cl)cc4)cc23)c1F [PLX4032],sensitivity to PLX4032 on FOXO4 knockdown (Cytochrome C release),[1],strongly sensitized; also recorded: Increased sensitivity
same,sensitivity of A375-shFOXO4 compared with A375-shGFP cells to the drug,A375 melanoma cells,more sensitive
same,apoptosis,[2],trigger apoptosis
same,tumor-free survival rates,metastatic melanoma,Major improvements in tumor-free survival rates
